The series can be described thus: UV absorption spectroscopic data (λmax, ε, E 1%/1 cm) of the merocyanine UV absorbers. Type of series: physicochemical. Also on record: λmax: unit not given beside the values. Conditions: for λmax [nm]: Table MC1; for E (1%, 1 cm) / ε / λmax / λmax (sh): Table MC3; for ε: at λmax; for λmax (sh): shoulder.

As to `CC(=O)/C(C(=O)OCC(C)C)=C1/C=C(NCC(C)(CNC2=C/C(=C(\C(C)=O)C(=O)OCC(C)C)CC(C)(C)C2)CNC2=C/C(=C(\C(C)=O)C(=O)OCC(C)C)CC(C)(C)C2)CC(C)(C)C1` [MC27], under “in MeOH”, the “λmax [nm]” value is listed as 385 (MeOH) nm.
`CCCCC(CC)COC(=O)/C(C#N)=C\C=C\N(CC)CCCN(/C=C/C=C(/C#N)C(=O)OCC(CC)CCCC)CC` (centres unmarked) [MC173]: the “E (1%, 1 cm)” value was 1545 and the ε was found to be 92000 L/mol/cm. In addition, for the setting “solvent not given”, the λmax was found to be 390.
The corresponding values for `COC(=O)C(=C/C=C/N(C)C)C(=O)OC` [MC177] are 2488, 53000 L/mol/cm and 373.
As to `CC1(C)CC(NC2CCCCC2NC2=CC(=C(C#N)C#N)CC(C)(C)C2)=CC(=C(C#N)C#N)C1` (centres unmarked) [MC34], the “λmax [nm]” value (in MeOH) was 383 (MeOH) nm.
Regarding `COC(=O)C(=C/C=C/N1CCCCC1)C(=O)OC` [MC179], the “E (1%, 1 cm)” value came to 1953 and the ε amounted to 49500 L/mol/cm. In addition, where the note is “solvent not given”, the λmax is on record as 377.
With `CCCCN(/C=C/C=C(C(=O)OCC)C(=O)OCC)CCCC` [MC182], the “E (1%, 1 cm)” value amounted to 1423 and the ε is 60600 L/mol/cm. In addition, the λmax (solvent not given) is 377.
Regarding `CCOC(=O)/C(C#N)=C1\C=C(NCCCCCCNC2=C/C(=C(/C#N)C(=O)OCC)CCC2)CCC1` [MC18], the “λmax [nm]” value (in MeOH) was 384 (MeOH) nm.
Regarding `CCOC(=O)/C(=C1\C=C(NC(C)CC)CCC1)C(OC)(C(=O)OCC)/C(C(=O)OCC)=C1/C=C(NC(C)CC)CCC1` (centres unmarked) [MC33], for the setting “in MeOH”, the “λmax [nm]” value is 375 (MeOH) nm.
Still for that read-out and setting: with `CCCCC(CC)(CCCNC1=C/C(=C(/C(=O)OCC)C(=O)c2ccc(OC)cc2)CCC1)CNC1=C/C(=C(/C(=O)OCC)C(=O)c2ccc(OCC)cc2)CCC1` (centres unmarked) [MC28] the figure was 373 (MeOH) nm; with `CCCCC(CC)CNC(=O)/C(C#N)=C1/C=C(N2CCN(C3=C/C(=C(\C#N)C(=O)NCC(CC)CCCC)CC(C)(C)C3)C(C)C2)CC(C)(C)C1` (centres unmarked) [MC26], 374 (MeOH) nm; with `CC(=O)/C(C(=O)NCCNC(=O)/C(C(C)=O)=C1/C=C(N2CCCCC2)CCC1)=C1\C=C(N2CCCCC2)CCC1` [MC30], 385 (MeOH) nm.
For the compound `CCCCCCCCOC(=O)/C(=C\C=C\N(CC)CC)S(=O)(=O)c1ccccc1` [MC172], the “E (1%, 1 cm)” value was 1724 and the ε worked out at 72700 L/mol/cm. Also, the λmax (solvent not given) was 371.
With `CC1(C)CC(NCCCOCCOCCNC2=CC(=C3C(=O)OC(C)(C)OC3=O)CC(C)(C)C2)=CC(=C2C(=O)OC(C)(C)OC2=O)C1` [MC13], the “λmax [nm]” value (in MeOH) is 380 (MeOH) nm.
Take `CCCCCCNC(=O)/C(=C1\C=C(NCCCNC2=C/C(=C(\C(=O)NCCCCCC)S(=O)(=O)c3ccccc3)CCC2)CCC1)S(=O)(=O)c1ccccc1` [MC16]: the “λmax [nm]” value (in MeOH) is recorded as 390 (MeOH) nm.
Still for that read-out and setting: the value for `Cc1ccc(S(=O)(=O)/C(C#N)=C\C=C2\OCC(C)(C)N2C)cc1` [MC06] was 374 (MeOH) nm.
Turning to `COC(=O)C(=C/C=C/N(C(C)C)C(C)C)C(=O)OC` [MC180], the “E (1%, 1 cm)” value worked out at 2111 and the ε is 56800 L/mol/cm. Further, the λmax (solvent not given) is 378.
Turning to `CCCCC(CC)COC(=O)/C(=C1\C=C(NCCCNC2=C/C(=C(\C(=O)OCC(CC)CCCC)S(=O)(=O)c3ccccc3)CCC2)CCC1)S(=O)(=O)c1ccccc1` (centres unmarked) [MC17], the “λmax [nm]” value (in MeOH) was 385 (MeOH) nm.
Take `CCOC(=O)C(=C/C=C/N1CCOCC1)C(=O)OCC` [MC181]: the “E (1%, 1 cm)” value is listed as 1684 and the ε stood at 47700 L/mol/cm. Also, the λmax (solvent not given) is recorded as 371.
For `COC(=O)C(=C/C=C/N1CCOCC1)C(=O)OC` [MC178], in that order: 1476, 37700 L/mol/cm and 373.
As to `CCOC(=O)/C(C#N)=C1\C=C(NC2CC(C)(C)CC(C)(CNC3=C/C(=C(\C#N)C(=O)OCC)CC(C)(C)C3)C2)CC(C)(C)C1` (centres unmarked) [MC24], the “λmax [nm]” value (in MeOH) is 388 (MeOH) nm.
On to `CCCCC(CC)COC(=O)/C(C#N)=C1\C=C(NC(C)CC)CC(C)(C)C1` (centres unmarked) [MC185], for which, for the setting “acetonitrile”, the λmax is 388 and the “λmax (sh)” value was 368.
Regarding `CCOC(=O)/C(C#N)=C1\C=C(NCCN(CCNC2=C/C(=C(/C#N)C(=O)OCC)CC(C)(C)C2)CCNC2=C/C(=C(\C#N)C(=O)OCC)CC(C)(C)C2)CC(C)(C)C1` [MC11], for the setting “in MeOH”, the “λmax [nm]” value is 375 (MeOH) nm.
The same measure, in the same setting: with `CCOC(=O)C(C(=O)OCC)=C1C=C(NCCCCCCNC2=CC(=C(C(=O)OCC)C(=O)OCC)CCC2)CCC1` [MC19] the figure was 373 (MeOH) nm; with `CC1(C)CC(NCCNC2=CC(=C(C#N)C#N)CC(C)(C)C2)=CC(=C(C#N)C#N)C1` [MC04], 361 (MeOH) nm.
As for `CCCCC(CC)COC(=O)/C(C#N)=C\C=C\N(CC)CCCCN(/C=C/C=C(/C#N)C(=O)OCC(CC)CCCC)CC` (centres unmarked) [MC183], the “E (1%, 1 cm)” value came out at 2570 and the ε stood at 111000 L/mol/cm. For the same compound, under “solvent not given”, the “λmax (sh)” value was found to be 370 and the λmax was 386.
Consider `CCCCC(CC)COC(=O)/C(C#N)=C/C=C/N1CCN(/C=C/C=C(\C#N)C(=O)OCC(CC)CCCC)CC1` (centres unmarked) [MC174], for which the “E (1%, 1 cm)” value was 2650 and the ε is listed as 146 379. This compound gave a λmax (solvent not given) of 398.
As for `CCCCC(CC)COC(=O)/C(C#N)=C1/C=C(NCCNC2=C/C(=C(\C#N)C(=O)OCC(CC)CCCC)CC(C)(C)C2)CC(C)(C)C1` (centres unmarked) [MC01], for the setting “in MeOH”, the “λmax [nm]” value is recorded as 362 (MeOH) nm.
Same read-out and setting: with `CCOC(=O)C(C(=O)OCC)=C1C=C(NCc2ccc(CNC3=CC(=C(C(=O)OCC)C(=O)OCC)CCC3)cc2)CCC1` [MC14] the figure was 392 (MeOH) nm; with `CCCCCCN(C=CC=C(C(C)=O)S(=O)(=O)c1ccc(C)cc1)CC` [MC36], 385 (MeOH) nm.
`CCOC(=O)C(C(=O)OCC)=C1C=C(N2CCOCC2)CC(C)(C)C1` [MC186] gave a λmax (acetonitrile) of 376.
For the compound `CCOC(=O)C(C(=O)OCC)=C1C=C(NCCNC2=CC(=C(C(=O)OCC)C(=O)OCC)CC(C)(C)C2)CC(C)(C)C1` [MC03], for the setting “in MeOH”, the “λmax [nm]” value is on record as 372 (MeOH) nm.
The same measure, in the same setting: with `CCOC(=O)/C(=C1\C=C(NCCNC2=C/C(=C(\C(=O)OCC)S(=O)(=O)c3ccccc3)CCC2)CCC1)S(=O)(=O)c1ccccc1` [MC05] the figure was 362 (MeOH) nm.
As for `COc1cc(OC(=O)/C(C(C)=O)=C2/C=C(NCC(C)NC3=C/C(=C(\C(C)=O)C(=O)Oc4cc(OC)c(OC)c(OC)c4)CC(C)(C)C3)CC(C)(C)C2)cc(OC)c1OC` (centres unmarked) [MC22], the “λmax [nm]” value (in MeOH) is listed as 395 (MeOH) nm.
Where the note is “acetonitrile”, `CCCCC(CC)COC(=O)/C(C#N)=C1\C=C(N2CCOCC2)CC(C)(C)C1` (centres unmarked) [MC184] yielded a λmax of 399.
`CN(CCCNC1=CC(=C2C(=O)CC(C)(C)CC2=O)CCC1)CCCNC1=CC(=C2C(=O)CC(C)(C)CC2=O)CCC1` [MC12]: where the note is “in MeOH”, the “λmax [nm]” value was 392 (MeOH) nm.
On the same count and under the same terms, with `CCOC(=O)C(C(=O)OCC)=C1C=C(NC2CCCCC2NC2=CC(=C(C(=O)OCC)C(=O)OCC)CC(C)(C)C2)CC(C)(C)C1` (centres unmarked) [MC10] the figure was 362 (MeOH) nm; with `COCCOC(=O)/C(C(C)=O)=C1/C=C(NCCC(C)(C)CC(C)CNC2=C/C(=C(\C(C)=O)C(=O)OCCOC)CC(C)C2)CC(C)C1` (centres unmarked) [MC29], 383 (MeOH) nm.
For the compound `CCCCC(CC)COC(=O)C(C#N)=CC=CN(CC)CC` (centres unmarked) [MC39], the “E (1%, 1 cm)” value is 2037 and the ε came out at 62400 L/mol/cm. Also, the “λmax [nm]” value (in EtOH) is 380 (EtOH) nm. Also, for the setting “solvent not given”, the λmax is given as 380.
In the case of `CCOC(=O)C(C(=O)OCC)=C1C=C(N2CCN(C3=CC(=C(C(=O)OCC)C(=O)OCC)CC(C)(C)C3)CC2)CC(C)(C)C1` [MC08], the “λmax [nm]” value (in MeOH) was 373 (MeOH) nm.
Turning to `CN(C)/C=C/C=C1C(=O)OC(C)(C)OC1=O` [MC175], the “E (1%, 1 cm)” value came out at 3022 and the ε came out at 68000 L/mol/cm. Moreover, the λmax (solvent not given) turned out to be 383.
For `COC(=O)C(C(=O)OC)=C1C=C(NC2CCCCC2NC2=CC(=C(C(=O)OC)C(=O)OC)CCC2)CCC1` (centres unmarked) [MC35], the “λmax [nm]” value (in MeOH) was 374 (MeOH) nm.
Consider `CC(=O)/C(C(=O)Nc1ccc(NC(=O)/C(C(C)=O)=C2/C=C(N3CCCC3)CC(C)(C)C2)cc1)=C1\C=C(N2CCCC2)CC(C)(C)C1` [MC31], for which the “λmax [nm]” value (in MeOH) is recorded as 394 (MeOH) nm.
In the case of `CCOC(=O)C(C(=O)OCC)=C1C=C(NCC2(C)CC(NC3=CC(=C(C(=O)OCC)C(=O)OCC)CC(C)(C)C3)CC(C)(C)C2)CC(C)(C)C1` (centres unmarked) [MC25], under “in MeOH”, the “λmax [nm]” value was 395 (MeOH) nm.
The same measure, in the same setting: with `CCOC(=O)/C(C#N)=C1\C=C(NC2CCCCC2NC2=C/C(=C(/C#N)C(=O)OCC)CC(C)(C)C2)CC(C)(C)C1` (centres unmarked) [MC09] the figure was 370 (MeOH) nm.

These data come from patent publication US7407648B2, “Merocyanine derivatives for cosmetic use” (Ciba Specialty Chemicals Corp., priority 2002, dated 2008).
